Measured values from US20220331301A1, “CYSTIC FIBROSIS TRANSMEMBRANE CONDUCTANCE REGULATOR MODULATORS FOR TREATING AUTOSOMAL RESESSIVE POLYCYSTIC KIDNEY DISEASE” (The Johns Hopkins University, priority 2021, published 2022).

Test system: Pkhd1^del4/del4 cholangiocytes
Assay: Cyst growth of cholangiocytes on matrigel (3D culture)
Format: cell-based, mice
Settings: for cyst growth / cyst area: 10 μM continuous, cysts induced with Forskolin (10 μM)
Procedure: (§1) Note that the cysts treated with forskolin (for) grew larger. […] Note that the cysts treated with forskolin (for) grew larger. […] FIG. 3C for 1 wk. […] Cysts were induced with Forskolin (10 μM) for 24 hours prior to study. Columns represent means±standard error (SEM). **P<0.01 ****P<0.0001 (for all graphs). Statistical analysis was performed using an unpaired two-tailed Student's t-test;
as §1, with “4C” for “3C”
But cysts do develop from the Pkhd1del4/del4 cholangiocytes. Cyst growth is accelerated by forskolin (for). […] Yanda et al., 2018. The dosage of VX-809 injected was lower than the human pediatric dose, which is 500 mg of Lumacaftor per day; the adult dose is 800 mg/day.
(Methods and cells provided by the Yale O'Brian Center) To create the cholangiocyte cultures PKhd1del/4/del4, Garcia-Gonzalez et al., 2007, animals were crossed with mice transgenic for the Sv40 large T Antigen (strain name SV40 T-antigen JAX strain #002233). Segments of intrahepatic bile ducts were microdissected from livers perfused via the portal vein with molten agarose containing toluidine blue to mark the veins. The liver parenchyma was stripped until the biliary tree was identified and the bile duct units were seeded onto rat type I collagen coated plates. Cells were cultured under non-permissive conditions in the following medium: DMEM/F12 with 5% fetal bovine serum, 10 μL/mL insulin-transferrin selenium, 3.4 μg/mL triiodothyronine, 50,000 U penicillin/streptomycin under humidified conditions at 37° C. in 5% CO2. After one week, the cells were cultured under permissive conditions in the presence of 10 U of interferon-γ at 33° C. in 5% CO2. When confluent, cells were passaged by digesting the collagen slab below the cells (60 min; 37° C.; DMEM/F12 with 2 mg/mL dispase and 1 mg/mL collagenase type 11), then washed twice in PBS and plated onto collagen coated support systems. Clonal cell lines were generated by single cell isolation. Cells were differentiated for 10 days at 37° C. without interferon-γ for experimental use.

For `CCOc1ccc2c(-c3cccc(F)c3)nn(CC(=O)N(C)c3ccc4nc(C)oc4c3)c(=O)c2c1` [FDL 169], the “cyst growth in 3D culture” value (Pkhd1del4/del4 cholangiocytes, time not stated) was “reduces growth”, the “cyst growth / cyst area” value (monitored for 1 week) was “reduced cyst growth in the presence of forskolin” and the “cyst growth / cyst area” value (monitored for 48 hrs) was “reduced cyst growth in the presence of forskolin”.
